# ChEMBL document CHEMBL3885861, “Open TG-GATES”
# Species on record: Rattus norvegicus
# Assay: Open TG-GATES - Regimen: Daily Repeat
# Format: toxicity, organism-based, Sprague-Dawley
# Parameters: regimen Daily Repeat, gender Male, age 6 weeks
# Conditions: in vivo, po, route gavage; for APTT / Bas / Eos / Fbg / Hb / Ht / Lym / MCH / MCHC / MCV / Mono / Neu / Plat / RBC / Ret / WBC: tissue Blood; for KIDNEY_L / KIDNEY_R / KIDNEY_TOTAL: tissue Kidney; for ALP / ALT / AST / BUN / CRE / DBIL / GLC / IP / K / LDH / Na / PL / RALB / TBIL / TC / TG / TP / gamma-GTP: tissue Plasma
# [1] = 0 mg/kg, 72 h, dose level Control, time 3 day
# [2] = 0 mg/kg, […], dose level Control, time 7 day
# [3] = 0 mg/kg, […], dose level Control, time 14 day
# [4] = 0 mg/kg, […], dose level Control, time 28 day
# [5] = 10 mg/kg, 72 h, dose level Low, time 3 day
# [6] = 10 mg/kg, […], dose level Low, time 7 day
# [7] = 10 mg/kg, […], dose level Low, time 14 day
# [8] = 10 mg/kg, […], dose level Low, time 28 day
compound,measurement,setting,value
CN(C)CCC=C1c2ccccc2COc2ccccc21 [DOXEPIN],TERMINAL_BW,[1],226.4 g
same,APTT,[1],17.1 s
same,Bas,[1],0%
same,Eos,[1],1%
same,Fbg,[1],281.6 mg/dL
same,Hb,[1],13.4 g/dL
same,Ht,[1],38.6%
same,Lym,[1],78.6%
same,MCH,[1],21.4 pg
same,MCHC,[1],34.7%
same,MCV,[1],61.7 fL
same,Mono,[1],2.8%
same,Neu,[1],17%
same,Plat,[1],122.6 x10_4/uL
same,RBC,[1],625.6 x10_4/ul
same,Ret,[1],7.8%
same,WBC,[1],81.7 x10_2/uL
same,KIDNEY_L,[1],1 g
same,KIDNEY_R,[1],1 g
same,KIDNEY_TOTAL,[1],2 g
same,ALP,[1],1760.6 IU/L
same,ALT,[1],46 IU/L
same,AST,[1],71.2 IU/L
same,BUN,[1],15.6 mg/dL
same,CRE,[1],0.2 mg/dL
same,DBIL,[1],0.018 mg/dL
same,GLC,[1],192 mg/dL
same,IP,[1],8 mg/dL
same,K,[1],4.3 meq/L
same,LDH,[1],71.8 IU/L
same,Na,[1],140.8 meq/L
same,PL,[1],143 mg/dL
same,RALB,[1],2.7 g/dL
same,TBIL,[1],0.036 mg/dL
same,TC,[1],79.6 mg/dL
same,TG,[1],91.2 mg/dL
same,TP,[1],5.7 g/dL
same,gamma-GTP,[1],1.4 IU/L
same,TERMINAL_BW,[2],255.5 g
same,TERMINAL_BW,[3],310.4 g
same,TERMINAL_BW,[4],419.8 g
same,APTT,[2],15.9 s
same,Bas,[2],0.2%
same,Eos,[2],1%
same,Fbg,[2],293.2 mg/dL
same,Hb,[2],13.5 g/dL
same,Ht,[2],38.5%
same,Lym,[2],75.4%
same,MCH,[2],21.1 pg
same,MCHC,[2],35.1%
same,MCV,[2],60 fL
same,Mono,[2],3.6%
same,Neu,[2],19%
same,Plat,[2],116.5 x10_4/uL
same,RBC,[2],641.8 x10_4/ul
same,Ret,[2],5.2%
same,WBC,[2],81 x10_2/uL
same,APTT,[3],16.8 s
same,Bas,[3],0%
same,Eos,[3],0.8%
same,Fbg,[3],280.2 mg/dL
same,Hb,[3],14 g/dL
same,Ht,[3],40.1%
same,Lym,[3],77.2%
same,MCH,[3],21.3 pg
same,MCHC,[3],34.8%
same,MCV,[3],61.1 fL
same,Mono,[3],2.8%
same,Neu,[3],18.4%
same,Plat,[3],116.1 x10_4/uL
same,RBC,[3],657.4 x10_4/ul
same,Ret,[3],4.8%
same,WBC,[3],103.9 x10_2/uL
same,APTT,[4],16.6 s
same,Bas,[4],0%
same,Eos,[4],1.2%
same,Fbg,[4],278.6 mg/dL
same,Hb,[4],14.7 g/dL
same,Ht,[4],41.9%
same,Lym,[4],74.6%
same,MCH,[4],20.2 pg
same,MCHC,[4],35.3%
same,MCV,[4],57.3 fL
same,Mono,[4],3%
same,Neu,[4],20.8%
same,Plat,[4],102.4 x10_4/uL
same,RBC,[4],731.6 x10_4/ul
same,Ret,[4],3%
same,WBC,[4],78.6 x10_2/uL
same,KIDNEY_L,[2],1.1 g
same,KIDNEY_R,[2],1.1 g
same,KIDNEY_TOTAL,[2],2.2 g
same,KIDNEY_L,[3],1.2 g
same,KIDNEY_R,[3],1.2 g
same,KIDNEY_TOTAL,[3],2.4 g
same,KIDNEY_L,[4],1.4 g
same,KIDNEY_R,[4],1.4 g
same,KIDNEY_TOTAL,[4],2.7 g
same,ALP,[2],1795.6 IU/L
same,ALT,[2],46 IU/L
same,AST,[2],74.4 IU/L
same,BUN,[2],18.8 mg/dL
same,CRE,[2],0.2 mg/dL
same,DBIL,[2],0.018 mg/dL
same,GLC,[2],186.4 mg/dL
same,IP,[2],7 mg/dL
same,K,[2],4.2 meq/L
same,LDH,[2],67.2 IU/L
same,Na,[2],141.4 meq/L
same,PL,[2],154 mg/dL
same,RALB,[2],2.7 g/dL
same,TBIL,[2],0.03 mg/dL
same,TC,[2],85 mg/dL
same,TG,[2],112.2 mg/dL
same,TP,[2],5.8 g/dL
same,gamma-GTP,[2],1.6 IU/L
same,ALP,[3],1467 IU/L
same,ALT,[3],42.8 IU/L
same,AST,[3],67.4 IU/L
same,BUN,[3],18 mg/dL
same,CRE,[3],0.2 mg/dL
same,DBIL,[3],0.014 mg/dL
same,GLC,[3],191.6 mg/dL
same,IP,[3],7 mg/dL
same,K,[3],4.1 meq/L
same,LDH,[3],65.6 IU/L
same,Na,[3],143.4 meq/L
same,PL,[3],157 mg/dL
same,RALB,[3],2.7 g/dL
same,TBIL,[3],0.024 mg/dL
same,TC,[3],77.4 mg/dL
same,TG,[3],172.8 mg/dL
same,TP,[3],6 g/dL
same,gamma-GTP,[3],1 IU/L
same,ALP,[4],1293.8 IU/L
same,ALT,[4],43.6 IU/L
same,AST,[4],65.4 IU/L
same,BUN,[4],17.2 mg/dL
same,CRE,[4],0.2 mg/dL
same,DBIL,[4],0.024 mg/dL
same,GLC,[4],180.8 mg/dL
same,IP,[4],6.3 mg/dL
same,K,[4],3.9 meq/L
same,LDH,[4],59.6 IU/L
same,Na,[4],143.4 meq/L
same,PL,[4],166 mg/dL
same,RALB,[4],2.9 g/dL
same,TBIL,[4],0.034 mg/dL
same,TC,[4],80.2 mg/dL
same,TG,[4],212.2 mg/dL
same,TP,[4],6.4 g/dL
same,gamma-GTP,[4],1 IU/L
same,TERMINAL_BW,[5],218 g
same,APTT,[5],16.2 s
same,Bas,[5],0%
same,Eos,[5],1%
same,Fbg,[5],283.2 mg/dL
same,Hb,[5],13.4 g/dL
same,Ht,[5],39.3%
same,Lym,[5],78%
same,MCH,[5],21.5 pg
same,MCHC,[5],34.2%
same,MCV,[5],62.8 fL
same,Mono,[5],2.8%
same,Neu,[5],18%
same,Plat,[5],107 x10_4/uL
same,RBC,[5],625.6 x10_4/ul
same,Ret,[5],7.4%
same,WBC,[5],67.2 x10_2/uL
same,KIDNEY_L,[5],0.9 g
same,KIDNEY_R,[5],0.9 g
same,KIDNEY_TOTAL,[5],1.9 g
same,ALP,[5],1531.8 IU/L
same,ALT,[5],42.2 IU/L
same,AST,[5],70.8 IU/L
same,BUN,[5],15.4 mg/dL
same,CRE,[5],0.2 mg/dL
same,DBIL,[5],0.024 mg/dL
same,GLC,[5],191 mg/dL
same,IP,[5],7.7 mg/dL
same,K,[5],4.3 meq/L
same,LDH,[5],74.2 IU/L
same,Na,[5],141.6 meq/L
same,PL,[5],156.8 mg/dL
same,RALB,[5],2.7 g/dL
same,TBIL,[5],0.044 mg/dL
same,TC,[5],85.8 mg/dL
same,TG,[5],100.8 mg/dL
same,TP,[5],5.8 g/dL
same,gamma-GTP,[5],1.4 IU/L
same,TERMINAL_BW,[6],254.8 g
same,TERMINAL_BW,[7],315.1 g
same,TERMINAL_BW,[8],390 g
same,APTT,[6],16.3 s
same,Bas,[6],0%
same,Eos,[6],1%
same,Fbg,[6],283.4 mg/dL
same,Hb,[6],13.5 g/dL
same,Ht,[6],38.8%
same,Lym,[6],79.8%
same,MCH,[6],21.5 pg
same,MCHC,[6],34.8%
same,MCV,[6],61.8 fL
same,Mono,[6],3%
same,Neu,[6],15.6%
same,Plat,[6],115.8 x10_4/uL
same,RBC,[6],627.6 x10_4/ul
same,Ret,[6],6%
same,WBC,[6],88.3 x10_2/uL
same,APTT,[7],16.8 s
same,Bas,[7],0%
same,Eos,[7],1.2%
same,Fbg,[7],296.8 mg/dL
same,Hb,[7],14.1 g/dL
same,Ht,[7],40.5%
same,Lym,[7],75.4%
same,MCH,[7],21.5 pg
same,MCHC,[7],34.7%
same,MCV,[7],61.8 fL
same,Mono,[7],3%
same,Neu,[7],20%
same,Plat,[7],106.2 x10_4/uL
same,RBC,[7],656.4 x10_4/ul
same,Ret,[7],4.7%
same,WBC,[7],76.1 x10_2/uL
same,APTT,[8],16.2 s
same,Bas,[8],0%
same,Eos,[8],1.4%
same,Fbg,[8],283.8 mg/dL
same,Hb,[8],14.6 g/dL
same,Ht,[8],41.3%
same,Lym,[8],81.4%
same,MCH,[8],19.8 pg
same,MCHC,[8],35.4%
same,MCV,[8],56 fL
same,Mono,[8],2%
same,Neu,[8],14.6%
same,Plat,[8],109.1 x10_4/uL
same,RBC,[8],737.6 x10_4/ul
same,Ret,[8],2.4%
same,WBC,[8],71.4 x10_2/uL
same,KIDNEY_L,[6],1.1 g
same,KIDNEY_R,[6],1.1 g
same,KIDNEY_TOTAL,[6],2.2 g
same,KIDNEY_L,[7],1.2 g
same,KIDNEY_R,[7],1.2 g
same,KIDNEY_TOTAL,[7],2.4 g
same,KIDNEY_L,[8],1.3 g
same,KIDNEY_R,[8],1.3 g
same,KIDNEY_TOTAL,[8],2.6 g
same,ALP,[6],1775.6 IU/L
same,ALT,[6],51.6 IU/L
same,AST,[6],84.2 IU/L
same,BUN,[6],19.2 mg/dL
same,CRE,[6],0.2 mg/dL
same,DBIL,[6],0.024 mg/dL
same,GLC,[6],191.2 mg/dL
same,IP,[6],7.5 mg/dL
same,K,[6],4.3 meq/L
same,LDH,[6],148.2 IU/L
same,Na,[6],142 meq/L
same,PL,[6],156 mg/dL
same,RALB,[6],2.6 g/dL
same,TBIL,[6],0.04 mg/dL
same,TC,[6],81 mg/dL
same,TG,[6],135.2 mg/dL
same,TP,[6],5.8 g/dL
same,gamma-GTP,[6],1 IU/L
same,ALP,[7],1686.4 IU/L
same,ALT,[7],42.2 IU/L
same,AST,[7],67.6 IU/L
same,BUN,[7],18.4 mg/dL
same,CRE,[7],0.2 mg/dL
same,DBIL,[7],0.012 mg/dL
same,GLC,[7],193.4 mg/dL
same,IP,[7],7.4 mg/dL
same,K,[7],4.4 meq/L
same,LDH,[7],70.2 IU/L
same,Na,[7],142.6 meq/L
same,PL,[7],150.2 mg/dL
same,RALB,[7],2.7 g/dL
same,TBIL,[7],0.024 mg/dL
same,TC,[7],73 mg/dL
same,TP,[7],6 g/dL
same,gamma-GTP,[7],1.2 IU/L
same,ALP,[8],1247.4 IU/L
same,ALT,[8],37.8 IU/L
same,AST,[8],62 IU/L
same,BUN,[8],16.4 mg/dL
same,CRE,[8],0.2 mg/dL
same,DBIL,[8],0.02 mg/dL
same,GLC,[8],173.6 mg/dL
same,IP,[8],5.6 mg/dL
same,K,[8],4 meq/L
same,LDH,[8],53 IU/L
same,Na,[8],144 meq/L
same,PL,[8],147.6 mg/dL
same,RALB,[8],2.8 g/dL
same,TBIL,[8],0.03 mg/dL
same,TC,[8],74 mg/dL
same,TG,[8],154.8 mg/dL
same,TP,[8],6.3 g/dL
same,gamma-GTP,[8],1.2 IU/L
